Reference: patent US20250059188A1, “ARYLSULPHONAMIDE COMPOUNDS” (Anaxis Pharma Pty Ltd, priority 2021, published 2025)

How the values were obtained:
human MLKL (full length) = human MLKL (full length) (Homo sapiens (Human), UniProt Q8NB16); test: KINOMEscan binding assay, human MLKL (full length); settings: equilibrium dissociation constant
Method in brief: (§1)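 Assay principle: test compound competes with immobilized bead ligand for kinase; kinase retained, then eluted, is counted by qPCR. Conditions were 1% DMSO final with 11 compound concentrations in 3-fold steps, 30,000 nM top for most. The Hill equation with slope −1 gave Kd.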

human RIPK1 = human RIPK1 (Homo sapiens (Human), UniProt Q13546); test: KINOMEscan binding assay, human RIPK1; settings: equilibrium dissociation constant
Method in brief: as §1

human RIPK3 = human RIPK3 (Homo sapiens (Human), UniProt Q9Y572); test: KINOMEscan binding assay, human RIPK3; settings: equilibrium dissociation constant
Method in brief: as §1

[1] = tested on: U937 human histiocytic leukemia cell line; test: Inhibition of TSQ induced necroptosis in U937 cells (CellTitre-Glo); settings: Homo sapiens, U-937, TSQ cocktail (TNF, Smac mimetic, Q-VD-OPh), 48 hours, read-out: Inhibition of TSQ-induced necroptosis (IC50 cell-based assay)
Procedure: Cellular Assay: Screening Compounds for Inhibition of TSQ Induced Necroptosis, 384 Well Plate Format.
(§2) • Cell Line ID: U937 human histiocytic leukemia cell line. • Cell Concentration (cells/well): Final cell density is 20000 cells per well. • Cell growth medium: HT-RPMI medium+7.4% Fetal Bovine Serum (FBS). Cells are cultured in Corning 150 cm^2 tissue culture flasks with vented caps at 37° C./5% CO2. • Incubation: Plates were incubated at 37° C./5% CO2 in a humidified incubator for 48 hours following addition of compounds and death stimuli (TSQ cocktail). • Compound concentration: 36 μM starting concentration, 1:3 dilution, 10 point • DMSO final concentration (% v/v): 0.3%. Compounds in TSQ Cocktail (T: TNF; S: Smac Mimetic; Q: Q-VD-OPh) and their Final Concentrations: • hTNF-Fc (100 ng/ml)—produced by standard procedures as shown in Bossen et al., J. Biol. Chem., 2006, 281(20), 13964-13971. • Compound A (500 nM) —Smac mimetic, Tetralogic and SYNthesis med chem • Q-VD-OPh (10 μM) —MP Biomedicals
(§3) The cellular assay was carried out according to the following steps: • 1. Each well was prepared by sequential addition of: • a. DMSO (control; columns 1-2 and 23-24) or compound in DMSO—addition was performed using acoustic transfer of nL volumes of stock compound to give final test concentrations of 36, 12, 4, 1.3, 0.44, 0.148, 0.049, 0.016, 0.005 and 0.002 μM. All wells were backfilled with DMSO to a final total volume in the well of 100 nL. • b. Following compound/DMSO addition in step (a), 40 μL of cell suspension (5×10^5 cells/mL) was added to provide a final cell concentration of 20,000 cells per well, and • c. Following cell addition in step (b), 10 μL of 5×TSQ cocktail (except to positive controls; columns 1 and 23) was added to each well. • 2. After 48 hours, plate was removed from the 37° C. incubator and equilibrated to room temperature for 45 minutes. • 3. 15 μL of room temperature CellTitre-Glo2™ (Promega™) was added to each well. • 4. Shook plates for 2 minutes (˜600 rpm) and incubated at room temperature for 15 minutes to allow signal to stabilise. • 5. Read luminescence readout on a plate reader.
Percent viability was calculated for each compound according to equation (2): […]
(§4) 10 point titration curves were fitted with the 4 parameter logistic nonlinear regression model and the IC50 reported reflect the inflection point of the curve for curve fitting.
(§5) • Assay involving the TSQ cocktail (T: TNF; S: Smac mimetic; Q: Q-VD-OPh): TSQ treatment ensures that cells specifically undergo necroptotic cell death. TNF activates the TNF receptor, Smac mimetic directs the signal away from proinflammatory signaling and toward the RIPK1/RIPK3-mediated cell death pathways, and Q-VD-OPh ensures that the apoptotic response is blocked leaving only the programmed necrosis response. The compounds' activity (solution in DMSO) tested in this TSQ-induced assay was evaluated by determining the number of viable cells in culture by measuring the amount of ATP present as measured by CelltiterGlo. • Counter screen: In parallel, all compounds were tested for their ability to affect cell viability. The same U937 cells were treated with compound in DMSO without the TSQ cocktail. This counter screen enabled evaluation of off-target effects. In this case, cell viability was measured by CelltiterGlo.

U937 cells = test: Counter screen: U937 cell viability without TSQ cocktail (off-target effect); set-up: species or system human; settings: Homo sapiens, U-937, compound without TSQ cocktail, read-out: Off-target effect (IC50 cell-based assay)
Procedure: as §2, §3, §4, §5

Chain of human RIPK3 (Q9Y572 whole entry): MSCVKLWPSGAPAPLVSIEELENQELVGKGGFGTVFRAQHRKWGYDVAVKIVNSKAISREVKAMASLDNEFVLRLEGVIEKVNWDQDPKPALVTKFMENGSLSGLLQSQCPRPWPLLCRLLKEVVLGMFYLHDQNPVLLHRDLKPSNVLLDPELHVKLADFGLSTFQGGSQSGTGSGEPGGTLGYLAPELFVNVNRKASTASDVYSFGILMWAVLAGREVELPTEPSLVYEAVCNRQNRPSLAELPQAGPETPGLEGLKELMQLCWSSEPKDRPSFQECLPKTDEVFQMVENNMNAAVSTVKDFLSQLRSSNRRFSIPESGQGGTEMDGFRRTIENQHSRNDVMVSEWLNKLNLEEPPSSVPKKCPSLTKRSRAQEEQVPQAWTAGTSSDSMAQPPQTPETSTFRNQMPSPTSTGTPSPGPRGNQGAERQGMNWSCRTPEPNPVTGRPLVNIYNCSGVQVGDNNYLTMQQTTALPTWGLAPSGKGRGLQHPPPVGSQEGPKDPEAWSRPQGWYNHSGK
Chain of human RIPK1 (Q13546 whole entry): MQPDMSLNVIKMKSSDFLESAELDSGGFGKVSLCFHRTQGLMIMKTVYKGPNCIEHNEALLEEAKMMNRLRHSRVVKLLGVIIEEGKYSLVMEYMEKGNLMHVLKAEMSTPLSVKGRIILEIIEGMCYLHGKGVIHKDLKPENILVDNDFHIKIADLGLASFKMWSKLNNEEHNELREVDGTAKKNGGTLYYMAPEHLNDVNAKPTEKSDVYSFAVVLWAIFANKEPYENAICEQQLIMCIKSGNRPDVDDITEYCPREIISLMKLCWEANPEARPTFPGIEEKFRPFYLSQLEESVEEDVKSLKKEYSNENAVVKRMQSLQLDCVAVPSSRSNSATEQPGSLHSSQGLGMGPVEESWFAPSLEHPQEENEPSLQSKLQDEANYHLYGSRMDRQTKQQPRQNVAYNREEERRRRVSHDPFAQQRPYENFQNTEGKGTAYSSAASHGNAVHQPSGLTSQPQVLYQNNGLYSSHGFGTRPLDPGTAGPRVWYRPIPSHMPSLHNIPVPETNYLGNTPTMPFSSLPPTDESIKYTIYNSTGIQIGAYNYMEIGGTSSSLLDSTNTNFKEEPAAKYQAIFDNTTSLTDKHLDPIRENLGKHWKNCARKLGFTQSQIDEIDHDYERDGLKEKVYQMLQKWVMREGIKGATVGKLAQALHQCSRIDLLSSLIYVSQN
Chain of human MLKL (full length) (Q8NB16 whole entry): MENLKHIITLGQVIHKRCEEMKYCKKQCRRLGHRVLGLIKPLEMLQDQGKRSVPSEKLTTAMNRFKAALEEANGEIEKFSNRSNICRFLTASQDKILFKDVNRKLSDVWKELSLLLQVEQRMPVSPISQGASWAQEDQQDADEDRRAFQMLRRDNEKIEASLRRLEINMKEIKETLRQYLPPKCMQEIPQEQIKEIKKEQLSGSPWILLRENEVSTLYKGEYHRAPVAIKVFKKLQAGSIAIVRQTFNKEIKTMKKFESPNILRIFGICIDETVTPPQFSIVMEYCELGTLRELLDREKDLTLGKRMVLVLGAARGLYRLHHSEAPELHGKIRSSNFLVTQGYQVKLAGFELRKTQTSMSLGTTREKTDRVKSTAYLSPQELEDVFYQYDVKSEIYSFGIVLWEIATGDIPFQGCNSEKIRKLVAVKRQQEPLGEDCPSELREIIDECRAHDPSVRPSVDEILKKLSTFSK

Compound	Kd (human MLKL (full length)) [µM]	Kd (human RIPK1) [µM]	Kd (human RIPK3) [µM]	IC50 [1] [µM]	IC50 (U937 cells) [µM]
C[C@H](Oc1cc(-c2nn(C)c3c(-c4cnn(C5CNC5)c4)cnc(N)c23)ccc1NS(=O)(=O)C(F)F)c1ccc(F)cc1 [Compound 94, (S)-N-(4-(4-amino-7-(1-(azetidin-3-yl)-1H-pyrazol-4-yl)-1-methyl-1H-pyrazolo[4,3-c]pyridin-3-yl)-2-(1-(4-fluorophenyl)ethoxy)phenyl)-1,1-difluoromethanesulfonamide]	< 0.001	> 10	> 10	0.01 to 1	> 10
C[C@H](Oc1cc(-c2nn(C)c3c(-c4cnn(C(F)F)c4)cnc(N)c23)ccc1NS(=O)(=O)C(F)F)c1ccc(F)cc1 [Compound 123, (S)-N-(4-(4-amino-7-(1-(difluoromethyl)-1H-pyrazol-4-yl)-1-methyl-1H-pyrazolo[4,3-c]pyridin-3-yl)-2-(1-(4-fluorophenyl)ethoxy)phenyl)-1,1-difluoromethanesulfonamide]	< 0.001	> 10	> 10	< 0.01	> 10
C[C@H](Oc1cc(-c2nn(C)c3c(-c4cnn(C5CCOC5)c4)cnc(N)c23)ccc1NS(=O)(=O)C(F)F)c1ccc(F)cc1 (stereo partly drawn) [Compound 41, N-(4-(4-amino-1-methyl-7-(1-(tetrahydrofuran-3-yl)-1H-pyrazol-4-yl)-1H-pyrazolo[4,3-c]pyridin-3-yl)-2-((S)-1-(4-fluorophenyl)ethoxy)phenyl)-1,1-difluoromethanesulfonamide]	< 0.001	> 10	> 10	< 0.01	> 10
C[C@H](Oc1cc(-c2nn(C)c3c(C#N)cnc(N)c23)ccc1NS(=O)(=O)C(F)F)c1ccc(F)cc1 [Compound 133, N-(4-{4-amino-7-cyano-1-methyl-1H-pyrazolo[4,3-c]pyridin-3-yl}-2-[(1S)-1-(4-fluorophenyl)ethoxy]phenyl)-1,1-difluoromethanesulfonamide]	< 0.001	> 10	> 10	0.01 to 1	> 10
C[C@H](Oc1cc(-c2nn(C)c3c(-c4ccncn4)cnc(N)c23)ccc1NS(=O)(=O)C(F)F)c1ccc(F)cc1 [Compound 40, (S)—N-(4-(4-amino-1-methyl-7-(pyrimidin-4-yl)-1H-pyrazolo[4,3-c]pyridin-3-yl)-2-(1-(4-fluorophenyl)ethoxy)phenyl)-1,1-difluoromethanesulfonamide]	< 0.001	> 10	> 10	< 0.01	> 10
Cc1ccc(-c2cnc(N)c3c(-c4ccc(NS(=O)(=O)C(F)F)c(O[C@@H](C)c5ccc(F)cc5)c4)nn(C)c23)cn1 [Compound 26, (S)-N-(4-(4-amino-1-methyl-7-(6-methylpyridin-3-yl)-1H-pyrazolo[4,3-c]pyridin-3-yl)-2-(1-(4-fluorophenyl)ethoxy)phenyl)-1,1-difluoromethanesulfonamide]	< 0.001	> 10	> 10	0.01 to 1	> 10
C[C@H](Oc1cc(-c2nn(C)c3c(-c4cnn(CCN(C)C)c4)cnc(N)c23)ccc1NS(=O)(=O)C(F)F)c1ccc(F)cc1 [Compound 100, (S)-N-(4-(4-amino-7-(1-(2-(dimethylamino)ethyl)-1H-pyrazol-4-yl)-1-methyl-1H-pyrazolo[4,3-c]pyridin-3-yl)-2-(1-(4-fluorophenyl)ethoxy)phenyl)-1,1-difluoromethanesulfonamide]	< 0.001	> 10	> 10	< 0.01	> 10
CC(C)n1cc(-c2cnc(N)c3c(-c4ccc(NS(=O)(=O)C(F)F)c(O[C@@H](C)c5ccc(F)cc5)c4)nn(C)c23)cn1 [Compound 31, (S)-N-(4-(4-amino-7-(1-isopropyl-1H-pyrazol-4-yl)-1-methyl-1H-pyrazolo[4,3-c]pyridin-3-yl)-2-(1-(4-fluorophenyl)ethoxy)phenyl)-1,1-difluoromethanesulfonamide]	< 0.001	> 10	> 10	< 0.01	> 10
C[C@H](Oc1cc(-c2nn(C)c3c(-c4ccc5[nH]c(=O)n(C)c5c4)cnc(N)c23)ccc1NS(=O)(=O)C(F)F)c1ccc(F)cc1 [Compound 160, (S)-N-(4-(4-amino-1-methyl-7-(3-methyl-2-oxo-2,3-dihydro-1H-benzo[d]imidazol-5-yl)-1H-pyrazolo[4,3-c]pyridin-3-yl)-2-(1-(4-fluorophenyl)ethoxy)phenyl)-1,1-difluoromethanesulfonamide]	< 0.001	> 10	> 10	0.01 to 1	> 10
C[C@H](Oc1cc(-c2cnn3c(-c4ccncc4)cnc(N)c23)ccc1NS(=O)(=O)C(F)F)c1ccc(F)cc1 [Compound 39, (S)-N-(4-(4-amino-7-(pyridin-4-yl)pyrazolo[1,5-a]pyrazin-3-yl)-2-(1-(4-fluorophenyl)ethoxy)phenyl)-1,1-difluoromethanesulfonamide]	< 0.001	> 10	> 10	0.01 to 1	> 10
C[C@H](Oc1cc(-c2nn(C)c3c(-c4ccnc(C(F)F)c4)cnc(N)c23)ccc1NS(=O)(=O)C(F)F)c1ccc(F)cc1 [Compound 57, (S)-N-(4-(4-amino-7-(2-(difluoromethyl)pyridin-4-yl)-1-methyl-1H-pyrazolo[4,3-c]pyridin-3-yl)-2-(1-(4-fluorophenyl)ethoxy)phenyl)-1,1-difluoromethanesulfonamide]	0.001 to 0.1	> 10	> 10	0.01 to 1	> 10
C[C@H](Oc1cc(-c2cnn3c(-c4cnn(CCO)c4)cnc(N)c23)ccc1NS(=O)(=O)C(F)F)c1ccc(F)cc1 [Compound 37, (S)-N-(4-(4-amino-7-(1-(2-hydroxyethyl)-1H-pyrazol-4-yl)pyrazolo[1,5-a]pyrazin-3-yl)-2-(1-(4-fluorophenyl)ethoxy)phenyl)-1,1-difluoromethanesulfonamide]	< 0.001	> 10	> 10	0.01 to 1	> 10
COC[C@H](Oc1cc(-c2nn(C)c3c(-c4cnn(C5CCOCC5)c4)cnc(N)c23)ccc1NS(=O)(=O)C(F)F)c1ccc(F)cc1 [Compound 111, (R)—N-(4-(4-amino-1-methyl-7-(1-(tetrahydro-2H-pyran-4-yl)-1H-pyrazol-4-yl)-1H-pyrazolo[4,3-c]pyridin-3-yl)-2-(1-(4-fluorophenyl)-2-methoxyethoxy)phenyl)-1,1-difluoromethanesulfonamide]	0.001 to 0.1	> 10	> 10	0.01 to 1	> 10
CNc1ncc(-n2cc(-c3cnc(N)c4c(-c5ccc(NS(=O)(=O)C(F)F)c(O[C@@H](C)c6ccc(F)cc6)c5)nn(C)c34)cn2)cn1 [Compound 138, (S)-N-(4-(4-amino-1-methyl-7-(1-(2-(methylamino)pyrimidin-5-yl)-1H-pyrazol-4-yl)-1H-pyrazolo[4,3-c]pyridin-3-yl)-2-(1-(4-fluorophenyl)ethoxy)phenyl)-1,1-difluoromethanesulfonamide]	0.001 to 0.1	> 10	> 10	0.01 to 1	> 10
